The values below come from patent publication US20150037257A1, “COMPOSITIONS AND METHODS FOR HIGH-THROUGHPUT SCREENING IN SKIN FIBROBLASTS WITH AN ALPHA-SYNUCLEIN TRIPLICATION” (priority 2011, published 2015).

What all share (format): cell-based, human
Test [1] relates to SNCA-Tri fibroblasts. As to the kind of experiment: Cell viability: LDH release (CytoTox-ONE) after paraquat exposure / siRNA knockdown. The settings on record: 300 uM PQ, 48 hrs. How it is done:
(§1) Cell viability was assessed using the CytoTox-ONE Homogeneous Membrane integrity Assay kit (Cat. No 07890, Promega, Madison, Wis.), which is a fluorescent measure of lactate dehydrogenase (LDH) released from cells with a damaged membrane by conversion of resazurin into resorufin. The assay was performed in a 96-well format according to the manufacturers' instructions. Briefly, 10,000 cells/well of control cells and 12,500 cells/well of SNCA-Tri fibroblasts were used for paraquat (PQ) exposure experiments; 12,500 cells/well were used in siRNA knockout experiments. Cell number was measured using WST-1 proliferation reagent (Roche, Indianapolis, Ind.) in a parallel plate.
(§2) Cells were exposed to freshly prepared PQ (N,N′-dimethyl-4,4′-bipyridinium dichloride) (Sigma, M2254) at 300 uM final concentration in culture media for 48 hours without media change prior to analysis.
(§3) The sequence of SNCA1 siRNA were used after the method of Fountaine et al, 2008. Custom siRNA (Dharmacon, Lafayette, Colo.) at a concentration of 75 nM (scrambled or α-syn targeted siRNA, SNCA1) was transfected at 90% cell confluency using […] Lipofectamine™ 2000 (Invitrogen) according to the manufacturer's instruction. Transfection efficiency was tested to be >90% with siGLO Cyclophilin B control siRNA (Dharmacon) in control fibroblasts.

Test [2] concerns SNCA-Tri fibroblasts. The test is described as follows: Mitochondrial membrane potential (TMRM) after paraquat exposure / siRNA knockdown. The conditions noted are these: 300 uM PQ, 48 hrs. How it is done: (§4) Fibroblasts were plated in 96-well plates (6,000 cells/well in the control and 7,500 cells/well in SNCA-Tri cells) and were used for paraquat (PQ) exposure experiments. After 24 hours, cells were changed to galactose medium and cultured for another 24 hours. The mitochondrial membrane potential was measured using the fluorescent dye tetramethylrhodamine methyl ester (TMRM) (Invitrogen) at the final concentration of 150 nM. Cells were incubated for 5 minutes at 37° C. and then washed with phosphate buffered saline (PBS). To remove the plasma membrane contribution from the TMRM fluorescence, each assay was performed in parallel with 10 uM carbonyl cyanide 3-chlorophenylhydrazone (CCCP) (Sigma, St Louis, Mo.), which collapses the mitochondrial membrane potential. All data were expressed as the total TMRM fluorescence minus the CCCP-treated TMRM fluorescence. Cell number was measured using WST-1 proliferation reagent in a parallel plate, according to the manufacturer's instruction. All measurements were performed on a TECAN GENios.
as §2, §3

Test [3] relates to control fibroblasts. The test is described as follows: Cellular ATP levels (ATPlite) after paraquat exposure. The conditions noted are these: controls, 300 uM PQ, 48 hrs. How it is done: (§5) Cellular adenosine triphosphate (ATP) levels were measured using the ATPlite kit (Cat. No. 6016943, Perkin Elmer, Waltham, Mass.) based on the reaction of ATP with added lucifcrase and D-luciferin, according to the manufacturer's instruction. ATP synthesis assays were performed on digitonin-treated fibroblasts. Briefly, for paraquat (PQ) exposure, cells were plated (6,000 cells/well in control cells and 7,500 cells/well in SNCA-Tri cells) for 24 hours prior to exposure to PQ.
as §2
For orientation: ATP-based viability assays read luminescence as a measure of living cells.

The test system of test [4] is control fibroblasts. As to the kind of experiment: Mitochondrial membrane potential (TMRM) after paraquat exposure. The conditions noted are these: controls, 300 uM PQ, 48 hrs. The method, then:
as §4, §2

Test [5] has as its system SNCA-Tri fibroblasts. As to the kind of experiment: Cellular ATP levels (ATPlite) after paraquat exposure / siRNA knockdown. The conditions noted are these: 300 uM PQ, 48 hrs. How it is done:
as §5, §2, §3

For test [6], the system named is control fibroblasts. The test is described as follows: Cell viability: LDH release (CytoTox-ONE) after paraquat exposure. The settings on record: controls, 300 uM PQ, 48 hrs. The method, then:
as §1, §2
Background: LDH leaks from cells whose membrane has failed.

Test [7] concerns α-syn mRNA expression in SNCA-Tri fibroblasts. As to the kind of experiment: α-syn mRNA expression by qPCR after paraquat exposure. How it is done: as §2
(§6) Total RNA was extracted from fibroblasts using TRIzol® (Invitrogen). cDNA from 0.5 ug total RNA was synthesized by reverse transcriptase (iScript cDNA synthesis kit, BioRad, Hercules, Calif.). Primer sequences of SNCA are SNCA-F: AGTTGTGGCTGCTGCTGAG (SEQ ID NO:1) and SNCA-R: […] (SEQ ID NO:2) and of beta-actin are HuActin-F: […] (SEQ ID NO:3) and HuActin-R: GCATTTGCGGTGGACGAT (SEQ ID NO:4). The PCR products of SNCA and beta-actin (as internal control) were amplified using the SYBR Green PCR Master Mix (Applied Biosystems, Carlsbad, Calif.). Amplification of the PCR products was quantitatively measured by the ABI 7000 Sequence Detection System (Applied Biosystems). 2^−ΔΔCt method was used in all quantitative PCR analyses.
Background: In qPCR the cycle at which signal appears reflects the starting amount.

Test [8] has as its system α-syn mRNA expression in control fibroblasts. The description is as above. The conditions noted are these: controls, vs naive expression. How it is done: as §2, §6
For test [9], the system named is control fibroblasts. The test is described as follows: Dose-response test of control fibroblasts with PQ (cell death). The conditions noted are these: 300 uM PQ, 48 hrs. How it is done:
as §1, §2

For the molecule `C[n+]1ccc(-c2cc[n+](C)cc2)cc1.[Cl-].[Cl-]` [PQ, N,N′-dimethyl-4,4′-bipyridinium dichloride], the “LDH release change, fold difference SNCA-Tri vs controls” value in test [1] (42% vs 27%) is 1.6 fold. Moreover, the “increase of LDH release in SNCA-Tri compared to controls after PQ exposure” value in test [1] (SNCA-Tri vs controls) turned out to be 46%. Also, the “LDH release, % change (increase) untreated vs PQ exposed” value in test [1] (SNCA-Tri) is 42%. Further, the “Mitochondrial membrane potential change, fold change SNCA-Tri vs controls” value in test [2] (61% vs 40%) came out at 1.5 fold. Moreover, in test [2] (SNCA-Tri vs controls), the “reduction of mitochondrial membrane potential in SNCA-Tri compared to controls after PQ exposure” value is on record as 51%. Also, the “Mitochondrial membrane potential decrease, untreated vs PQ exposed” value in test [2] (SNCA-Tri) worked out at 61%; in test [4] it was 40%. Moreover, the entries for the “Cellular ATP decrease, untreated vs PQ exposed” value in test [3] and in test [5] (SNCA-Tri) were 33% and 56%, respectively. Further, the “Cellular ATP change, fold change SNCA-Tri vs controls” value in test [5] (56% vs 33%) was 1.7 fold. For the same molecule, the “decrease of cellular ATP in SNCA-Tri compared to controls after PQ exposure” value in test [5] (SNCA-Tri vs controls) was determined as 59%. Further, in test [6], the “LDH release, % change untreated vs PQ exposed” value stood at 27%. For the same molecule, the “increase of α-syn mRNA expression after PQ exposure” value came to 7.5 fold in test [7] (SNCA-Tri, vs naive expression levels) and 2.6 fold in test [8]. Moreover, the “α-syn mRNA, fold difference SNCA-Tri over control fibroblasts after PQ treatment” value in test [7] (after PQ treatment) amounted to 3.2 fold. In addition, the cell death entry in [9] is reported as “about 25%”.
